Calls of active or inactive are those of the source. No cut-off for these calls is given here.
Legend:
[1] = target: T1, Peroxisome proliferator-activated receptor alpha (Homo sapiens, UniProt Q07869); assay: Agonist activity at human PPARalpha expressed in HEK293 cells cotransfected with PPREx4-TK-luc assessed as activation of luciferase activity measured after 48 hrs by transactivation assay; assay type: cell-based
T1 sequence (Q07869 whole entry): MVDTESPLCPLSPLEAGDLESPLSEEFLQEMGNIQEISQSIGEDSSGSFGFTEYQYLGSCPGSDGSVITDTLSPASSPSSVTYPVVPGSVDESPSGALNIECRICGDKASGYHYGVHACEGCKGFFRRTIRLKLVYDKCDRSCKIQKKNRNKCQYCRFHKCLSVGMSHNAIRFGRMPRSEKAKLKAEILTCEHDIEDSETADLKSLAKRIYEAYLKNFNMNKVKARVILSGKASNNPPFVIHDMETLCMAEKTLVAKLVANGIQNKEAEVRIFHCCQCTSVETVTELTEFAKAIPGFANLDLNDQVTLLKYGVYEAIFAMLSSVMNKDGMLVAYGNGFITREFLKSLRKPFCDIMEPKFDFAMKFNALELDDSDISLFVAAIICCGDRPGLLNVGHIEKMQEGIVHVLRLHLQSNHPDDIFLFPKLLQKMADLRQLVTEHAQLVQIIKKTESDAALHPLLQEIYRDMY

[2] = Cytotoxicity against human HEK293 cells assessed as cell viability at 10 uM measured after 48 hrs by MTS assay relative to vehicle control; assay type: cell-based; conditions: read-out: Activity
[3] = target: T2, Peroxisome proliferator-activated receptor delta (Homo sapiens, UniProt Q03181); assay: Agonist activity at human PPARdelta expressed in HEK293 cells cotransfected with PPREx4-TK-luc assessed as activation of luciferase activity measured after 48 hrs by transactivation assay; assay type: cell-based
T2 sequence (Q03181 whole entry): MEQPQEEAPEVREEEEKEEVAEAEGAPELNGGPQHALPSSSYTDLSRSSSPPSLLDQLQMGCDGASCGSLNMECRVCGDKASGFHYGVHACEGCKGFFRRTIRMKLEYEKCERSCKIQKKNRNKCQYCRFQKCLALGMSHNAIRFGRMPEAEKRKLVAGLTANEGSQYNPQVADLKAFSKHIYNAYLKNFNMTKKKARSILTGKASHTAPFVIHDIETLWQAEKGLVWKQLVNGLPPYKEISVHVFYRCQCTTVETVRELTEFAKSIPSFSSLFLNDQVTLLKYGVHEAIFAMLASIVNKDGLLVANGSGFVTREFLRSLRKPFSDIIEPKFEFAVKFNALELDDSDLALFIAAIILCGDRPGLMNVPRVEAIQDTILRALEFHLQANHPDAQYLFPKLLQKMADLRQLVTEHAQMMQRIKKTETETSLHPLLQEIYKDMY

[4] = target: T3, Peroxisome proliferator-activated receptor gamma (Homo sapiens, UniProt P37231); assay: Agonist activity at human PPARgamma expressed in HEK293 cells cotransfected with PPREx4-TK-luc assessed as activation of luciferase activity measured after 48 hrs by transactivation assay; assay type: cell-based
T3 sequence (P37231 whole entry): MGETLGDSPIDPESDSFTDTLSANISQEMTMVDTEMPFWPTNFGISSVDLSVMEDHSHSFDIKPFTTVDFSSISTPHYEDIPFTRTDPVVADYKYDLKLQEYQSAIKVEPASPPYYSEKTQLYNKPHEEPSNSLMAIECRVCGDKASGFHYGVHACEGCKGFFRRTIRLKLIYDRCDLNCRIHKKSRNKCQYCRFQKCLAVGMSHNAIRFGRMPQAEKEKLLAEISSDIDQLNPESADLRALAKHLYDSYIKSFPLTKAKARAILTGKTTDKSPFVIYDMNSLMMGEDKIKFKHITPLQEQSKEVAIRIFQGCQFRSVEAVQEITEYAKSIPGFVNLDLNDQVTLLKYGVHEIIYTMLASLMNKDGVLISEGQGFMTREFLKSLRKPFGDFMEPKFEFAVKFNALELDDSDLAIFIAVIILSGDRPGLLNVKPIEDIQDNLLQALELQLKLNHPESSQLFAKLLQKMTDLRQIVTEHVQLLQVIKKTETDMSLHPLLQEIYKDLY

[5] = Cytotoxicity against human HEK293 cells assessed as cell viability at 100 uM measured after 48 hrs by MTS assay relative to vehicle control; assay type: cell-based; conditions: read-out: Activity
Rattus norvegicus [6] = assay: Antimetabolic syndrome activity in Zucker […] rat assessed as inhibition of fatty liver disease in measured as liver mass at 3 mg/kg (reference value: 8.6 g); assay type: functional
Rattus norvegicus [7] = assay: Reduction in Zucker diabetic fatty rat body weight gain at 3 mg/kg/day measured after 3 weeks; assay type: functional, organism-based
Rattus norvegicus [8] = assay: Reduction in Zucker diabetic fatty rat body weight gain at 3 mg/kg/day measured after 6 weeks (reference value: 103 g); assay type: functional
Rattus norvegicus [9] = assay: Antidiabetic activity against Zucker diabetic fatty rat assessed as blood glucose level at 3 mg/kg measured after 2 hrs of glucose intake by oral glucose tolerance test (reference value: 185 mg/dL); assay type: functional
Rattus norvegicus [10] = assay: Antimetabolic syndrome activity in Zucker diabetic fatty rat assessed as inhibition of fatty liver disease in measured as liver mass at 3 mg/kg (reference value: 23.9 g); assay type: functional
Rattus norvegicus [11] = assay: Antidiabetic activity against Zucker diabetic fatty rat assessed as blood glucose level at 3 mg/kg (reference value: 124 mg/dL); assay type: functional
Rattus norvegicus [12] = assay: Antidiabetic activity against Zucker diabetic fatty rat assessed as blood glucose level at 3 mg/kg after 30 mins (reference value: 270 mg/dL); assay type: functional

SMILES | EC50 [1] [µM] | viability at 48 h, 10 µM [2] [%] | EC50 [3] [µM] | EC50 [4] [µM] | viability at 48 h, 100 µM [5] [%] | Activity (Rattus norvegicus [6]) [g] | Activity (Rattus norvegicus [7]) | Activity (Rattus norvegicus [8]) [g] | Activity (Rattus norvegicus [9]) [mg/dL] | Activity (Rattus norvegicus [10]) [g] | Activity (Rattus norvegicus [11]) [mg/dL] | Activity (Rattus norvegicus [12]) [mg/dL]
O=c1c(-c2ccc(F)cc2)coc2cc(O)ccc12 | 23.1 | 78 | 24.4 |  |  |  |  |  |  |  |  | 
CC(C)(Oc1ccc(CCNC(=O)c2ccc(Cl)cc2)cc1)C(=O)O [BEZAFIBRATE] |  | 76 |  | 70.4 | 73.7 |  |  |  |  |  |  | 
O=c1c(-c2ccc3c(c2)OCO3)coc2cc(O)ccc12 [PSEUDOBAPTOGENIN] |  | > 90 | 22.3 |  |  |  |  |  |  |  |  | 
COc1cc(OC)cc(-c2coc3cc(O)ccc3c2=O)c1 |  | 80 | 17.2 |  |  |  |  |  |  |  |  | 
COc1cccc(-c2coc3cc(O)ccc3c2=O)c1 | 33.1 | > 90 | 12.4 |  | 74 | 8.3 | Active | 94 | 154 | 19.7 | 113 | 247
